Holding throughout (assay type): biochemical
Experiment [1] has as its target T1, Recombinant human SSAO protein (Homo sapiens, UniProt Q16853).
T1 construct: Eli Lilly (provided, not purchased)
T1 sequence (Q16853 1-763): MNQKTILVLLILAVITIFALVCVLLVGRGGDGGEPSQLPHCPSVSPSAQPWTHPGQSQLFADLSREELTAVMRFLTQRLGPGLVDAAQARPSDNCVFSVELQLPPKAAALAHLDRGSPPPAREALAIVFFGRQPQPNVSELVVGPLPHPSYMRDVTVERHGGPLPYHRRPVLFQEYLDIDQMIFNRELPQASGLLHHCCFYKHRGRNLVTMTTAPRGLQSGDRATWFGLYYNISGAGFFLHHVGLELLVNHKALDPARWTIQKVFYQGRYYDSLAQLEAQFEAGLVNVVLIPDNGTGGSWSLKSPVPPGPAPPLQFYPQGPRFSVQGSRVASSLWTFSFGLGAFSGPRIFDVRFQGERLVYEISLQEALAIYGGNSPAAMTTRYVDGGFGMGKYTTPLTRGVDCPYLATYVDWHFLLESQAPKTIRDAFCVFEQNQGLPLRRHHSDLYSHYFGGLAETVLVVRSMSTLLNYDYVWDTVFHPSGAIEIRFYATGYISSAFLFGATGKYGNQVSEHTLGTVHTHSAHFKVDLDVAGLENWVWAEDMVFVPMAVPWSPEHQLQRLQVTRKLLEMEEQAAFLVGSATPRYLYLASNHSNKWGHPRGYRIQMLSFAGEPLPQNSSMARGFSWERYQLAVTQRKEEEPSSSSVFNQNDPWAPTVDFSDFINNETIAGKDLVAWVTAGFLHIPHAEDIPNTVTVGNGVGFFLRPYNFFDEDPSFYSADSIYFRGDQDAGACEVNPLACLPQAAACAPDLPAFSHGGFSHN
Nature of the experiment: In vitro inhibitory activity on SSAO/VAP-1 (MAO-Glo assay). The following applies: compound 1 μM to 0.05 nM. As for the experimental part:
(§1) This assay was used to evaluate the in vitro inhibitory activity of the compounds against SSAO/VAP-1 of different species. Recombinant human SSAO protein, mouse SSAO protein or rat SSAO protein (provided by Eli Lilly) were used. The enzyme activity detection kit, MAO-Glo Assay kit (V1402) was purchased from Promega. Enzyme reaction buffer (50 mM HEPES, 120 mM NaCl, 5 mM KCl, 2 mM CaCl2, 1.4 mM MgCl2, 0.001% Tween-20, pH 7.4) was prepared. The test compounds were dissolved in DMSO and serially diluted by 3-fold. The final concentration of test compound in a 10 μL reaction system was 1 μM to 0.05 nM when SSAO activity was detected. The content of DMSO in the detection reaction system was 1%. After the DMSO solution of test compounds was diluted in the enzyme reaction buffer at a volume ratio of 1:25, 2.5 μL of the solution was added to each well of detection plate with two replicates for each concentration. 5 μL of SSAO protein diluted in the enzyme reaction buffer was added to each well, the final concentration of which was 10 nM to 80 nM in 10 μL reaction system. […] The reaction solution was incubated for 20 minutes at room temperature, and the plate was read with Synergy Neo 2 for detection. […]
(§2) Signalpositive was signal of positive control wells without test compounds added. […] IC50 value was calculated by using 4 parameters curve fitting.

The target of a further experiment is T2, Recombinant human MAO-A (Homo sapiens, UniProt P21397).
T2 construct: purchased Sigma M7316
T2 sequence (P21397 1-527): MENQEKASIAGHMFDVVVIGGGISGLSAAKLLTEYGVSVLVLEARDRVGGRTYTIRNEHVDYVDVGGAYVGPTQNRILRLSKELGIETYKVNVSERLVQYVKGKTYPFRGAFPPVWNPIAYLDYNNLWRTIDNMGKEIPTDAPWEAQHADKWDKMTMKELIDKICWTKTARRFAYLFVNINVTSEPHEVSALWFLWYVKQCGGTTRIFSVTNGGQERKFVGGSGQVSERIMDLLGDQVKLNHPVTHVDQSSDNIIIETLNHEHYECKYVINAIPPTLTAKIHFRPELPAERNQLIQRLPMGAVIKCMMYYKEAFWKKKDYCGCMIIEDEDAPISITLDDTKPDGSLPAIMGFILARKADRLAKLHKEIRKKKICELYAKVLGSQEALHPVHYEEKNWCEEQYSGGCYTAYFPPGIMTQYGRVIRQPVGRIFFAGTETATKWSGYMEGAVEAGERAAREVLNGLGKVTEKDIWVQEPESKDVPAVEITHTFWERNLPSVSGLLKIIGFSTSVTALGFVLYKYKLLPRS
Nature of the experiment: Inhibitory activity on MAO-A (MAO-Glo assay). Particulars: recombinant human MAO-A 70 nM; compound 100 μM to 5 nM. As for the experimental part:
as §1, with “concentration.” for “concentration. 5 μL of SSAO protein diluted in the enzyme reaction buffer was added to each well, the final concentration of which was 10 nM to 80 nM in 10 μL reaction system.”
as §2
(§3) Recombinant human MAO-A and MAO-B protein was purchased from Sigma (M7316, M7441). […] The final concentration of test compound in 10 μL reaction system was 100 μM to 5 nM when MAO-A and MAO-B activity were detected. […]

The target in another experiment is T3, Recombinant human MAO-B (Homo sapiens, UniProt P27338).
T3 construct: purchased Sigma M7441
T3 sequence (P27338 1-520): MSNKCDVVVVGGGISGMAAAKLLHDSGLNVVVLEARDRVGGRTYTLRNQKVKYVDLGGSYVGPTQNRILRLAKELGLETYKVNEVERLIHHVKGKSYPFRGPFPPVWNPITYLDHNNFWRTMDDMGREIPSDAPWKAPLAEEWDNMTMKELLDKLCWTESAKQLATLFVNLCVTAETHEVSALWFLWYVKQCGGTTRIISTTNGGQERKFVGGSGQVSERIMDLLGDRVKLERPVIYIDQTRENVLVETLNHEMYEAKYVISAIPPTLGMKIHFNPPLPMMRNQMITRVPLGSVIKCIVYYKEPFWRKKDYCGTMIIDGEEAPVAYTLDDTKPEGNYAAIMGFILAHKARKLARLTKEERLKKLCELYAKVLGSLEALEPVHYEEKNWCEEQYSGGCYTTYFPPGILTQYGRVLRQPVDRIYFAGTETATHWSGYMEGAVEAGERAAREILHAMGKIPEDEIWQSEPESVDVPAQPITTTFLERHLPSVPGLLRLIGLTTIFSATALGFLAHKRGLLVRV
Nature of the experiment: Inhibitory activity on MAO-B (MAO-Glo assay). The following applies: recombinant human MAO-B 300 nM; compound 100 μM to 5 nM. As for the experimental part: as §1, with “concentration.” for “concentration. 5 μL of SSAO protein diluted in the enzyme reaction buffer was added to each well, the final concentration of which was 10 nM to 80 nM in 10 μL reaction system.”
as §2, §3

Experiment [2] has as its target T4, Recombinant human AOC2 protein (Homo sapiens, UniProt O75106).
T4 construct: Eli Lilly (provided, not purchased)
T4 sequence (O75106 1-756): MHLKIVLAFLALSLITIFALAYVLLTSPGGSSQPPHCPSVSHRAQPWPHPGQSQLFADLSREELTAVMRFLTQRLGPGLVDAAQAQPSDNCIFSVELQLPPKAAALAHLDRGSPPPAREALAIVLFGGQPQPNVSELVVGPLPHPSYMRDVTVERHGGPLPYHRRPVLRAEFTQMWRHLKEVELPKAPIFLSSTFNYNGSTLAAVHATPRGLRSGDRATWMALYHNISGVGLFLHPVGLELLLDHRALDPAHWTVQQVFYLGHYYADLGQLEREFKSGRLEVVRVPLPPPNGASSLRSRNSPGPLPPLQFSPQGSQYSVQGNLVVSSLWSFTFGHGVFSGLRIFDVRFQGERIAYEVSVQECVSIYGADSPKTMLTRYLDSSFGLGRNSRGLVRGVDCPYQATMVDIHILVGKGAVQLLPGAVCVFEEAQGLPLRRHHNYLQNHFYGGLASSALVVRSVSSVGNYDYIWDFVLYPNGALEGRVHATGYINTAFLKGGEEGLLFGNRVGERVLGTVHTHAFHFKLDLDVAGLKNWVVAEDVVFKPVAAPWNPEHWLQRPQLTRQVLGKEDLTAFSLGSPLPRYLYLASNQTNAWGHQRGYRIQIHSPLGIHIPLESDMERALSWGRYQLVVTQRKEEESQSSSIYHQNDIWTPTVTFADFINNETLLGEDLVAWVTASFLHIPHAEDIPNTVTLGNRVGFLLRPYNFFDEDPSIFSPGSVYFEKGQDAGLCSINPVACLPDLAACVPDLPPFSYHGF
Nature of the experiment: Inhibitory activity on AOC2 (MAO-Glo assay). The following applies: compound 100 μM to 5 nM. As for the experimental part: as §1, with “1%.” for “1%. After the DMSO solution of test compounds was diluted in the enzyme reaction buffer at a volume ratio of 1:25, 2.5 μL of the solution was added to each well of detection plate with two replicates for each concentration. 5 μL of SSAO protein diluted in the enzyme reaction buffer was added to each well, the final concentration of which was 10 nM to 80 nM in 10 μL reaction system.”
as §2
Recombinant human AOC2 protein (provided by Eli Lilly). […] The final concentration of test compound in 10 μL reaction system was 100 μM to 5 nM when AOC2 activity was detected, while other reaction conditions were the same as those in Biological Test Example 1. […]

Experiment [3] addresses T5, Recombinant human AOC1/DAO protein (Homo sapiens, UniProt P19801).
T5 construct: purchased R&D systems 8298-AO
T5 sequence (P19801 20-751): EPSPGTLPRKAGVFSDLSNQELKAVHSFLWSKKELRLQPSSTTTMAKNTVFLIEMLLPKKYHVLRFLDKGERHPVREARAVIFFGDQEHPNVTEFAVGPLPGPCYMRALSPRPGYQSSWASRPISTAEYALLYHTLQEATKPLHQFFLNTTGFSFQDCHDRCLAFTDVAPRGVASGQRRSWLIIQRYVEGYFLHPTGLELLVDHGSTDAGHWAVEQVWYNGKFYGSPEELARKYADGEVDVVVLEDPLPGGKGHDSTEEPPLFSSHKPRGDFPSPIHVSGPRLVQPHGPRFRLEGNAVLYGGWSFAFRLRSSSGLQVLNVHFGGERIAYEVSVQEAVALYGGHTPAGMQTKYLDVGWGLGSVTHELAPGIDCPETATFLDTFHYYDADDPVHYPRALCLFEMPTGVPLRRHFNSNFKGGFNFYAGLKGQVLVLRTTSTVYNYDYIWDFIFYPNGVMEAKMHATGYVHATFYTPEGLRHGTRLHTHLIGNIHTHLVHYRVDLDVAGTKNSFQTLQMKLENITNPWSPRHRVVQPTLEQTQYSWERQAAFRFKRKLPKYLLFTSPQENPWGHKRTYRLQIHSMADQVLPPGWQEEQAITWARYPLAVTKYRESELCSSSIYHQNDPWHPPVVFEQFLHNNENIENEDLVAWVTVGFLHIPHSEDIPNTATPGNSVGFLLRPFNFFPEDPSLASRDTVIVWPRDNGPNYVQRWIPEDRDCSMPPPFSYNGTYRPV
Nature of the experiment: Inhibitory activity on AOC1 (Amplex UltraRed/HRP, putrescine substrate). The following applies: compound 100 μM to 5 nM. As for the experimental part: Recombinant human AOC1/DAO protein was purchased from R&D systems (Cat: 8298-AO). Amplex UltraRed was purchased from Thermo scientific (Cat: A36006). HRP (Cat: P8250) and Putrescine (Cat: V900377) were purchased from Sigma. Enzyme reaction buffer (50 mM HEPES, 120 mM NaCl, 5 mM KCl, 2 mM CaCl2, 1.4 mM MgCl2, 0.001% Tween-20, pH7.4) was prepared. Test compound was dissolved in DMSO and serially diluted by 3-fold. The final concentration of test compound in 10 μL reaction system was 100 μM to 5 nM when AOC1 activity was detected. The content of DMSO in detection reaction system was 1%. After the DMSO solution of test compound was diluted in the enzyme reaction buffer at a volume ratio of 1:25, 10 μL of mixture was added to each well of detection plate. 4× substrate mixture (containing 400 μM Putrescine, 4U/mL HRP, 4 μM Amplex UltraRed) was prepared in the enzyme reaction buffer, 10 μL of which was added to each well. 20 μL of AOC1 protein diluted in enzyme reaction buffer was added to each well and the final concentration was 0.4 nM in 40 μL reaction system. Synergy Neo 2 was used to read the plate for detection. […] The enzyme activity was calculated based on the increased signal of each well from the 10th minute to the 30th minute. […]
as §2

Usually IC50 stands for the point on the concentration scale where inhibition reaches its midpoint.

For `CC1(O)CCN(c2ncc(OC/C(=C/F)CN)cn2)CC1` [Example 1, (E)-1-(5-((2-(Aminomethyl)-3-fluoroallyl)oxy)pyrimidin-2-yl)-4-methylpiperidin-4-ol], the IC50 in experiment [1] is less than 0.01 µM; on Recombinant human MAO-A, 10 to 100 µM; at Recombinant human MAO-B it was greater than 20 µM; in experiment [2] it was greater than 1 µM; in experiment [3] it was greater than 10 µM.

In the case of `COCC1(O)CCN(c2ncc(OC/C(=C/F)CN)cn2)CC1` [Example 2, (E)-1-(5-((2-(aminomethyl)-3-fluoroallyl)oxy)pyrimidin-2-yl)-4-(methoxymethyl)piperidin-4-ol], the IC50 was less than 0.01 µM in experiment [1]; greater than 100 µM on Recombinant human MAO-A; greater than 20 µM at Recombinant human MAO-B; greater than 1 µM in experiment [2]; 0.1 to 10 µM in experiment [3].
